The results in this text go back to patent US10189841B2, “Purinones as ubiquitin-specific protease 1 inhibitors” (Forma Therapeutics, Inc., priority 2015, dated 2019).

The target of this experiment is USP1 (construct USP1 (I-785, GG670, 671AA)/UAF1 (I-677)-Flag) (Homo sapiens (Human), UniProt O94782, G670A/G671A). The experiment can be described thus: Ubiquitin-Rhodamine 110 assay for USP1 activity. Type of experiment: biochemical. As to conditions: USP1/UAF1 25 pM, Ub-Rh110 25 nM, 30 min preincubation. A digest of the protocol: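 Two formats with the USP1/UAF1 complex and 25 nM ubiquitin-rhodamine 110 in pH 8.0 Tris buffer with calcium, glutathione and detergent. Single-point screening used 10 µM, 100 pM enzyme and 45 min. Inhibition was set against no-enzyme and DMSO wells.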
Chain of USP1 (construct USP1 (I-785, GG670, 671AA)/UAF1 (I-677)-Flag) (O94782 whole entry G670A/G671A): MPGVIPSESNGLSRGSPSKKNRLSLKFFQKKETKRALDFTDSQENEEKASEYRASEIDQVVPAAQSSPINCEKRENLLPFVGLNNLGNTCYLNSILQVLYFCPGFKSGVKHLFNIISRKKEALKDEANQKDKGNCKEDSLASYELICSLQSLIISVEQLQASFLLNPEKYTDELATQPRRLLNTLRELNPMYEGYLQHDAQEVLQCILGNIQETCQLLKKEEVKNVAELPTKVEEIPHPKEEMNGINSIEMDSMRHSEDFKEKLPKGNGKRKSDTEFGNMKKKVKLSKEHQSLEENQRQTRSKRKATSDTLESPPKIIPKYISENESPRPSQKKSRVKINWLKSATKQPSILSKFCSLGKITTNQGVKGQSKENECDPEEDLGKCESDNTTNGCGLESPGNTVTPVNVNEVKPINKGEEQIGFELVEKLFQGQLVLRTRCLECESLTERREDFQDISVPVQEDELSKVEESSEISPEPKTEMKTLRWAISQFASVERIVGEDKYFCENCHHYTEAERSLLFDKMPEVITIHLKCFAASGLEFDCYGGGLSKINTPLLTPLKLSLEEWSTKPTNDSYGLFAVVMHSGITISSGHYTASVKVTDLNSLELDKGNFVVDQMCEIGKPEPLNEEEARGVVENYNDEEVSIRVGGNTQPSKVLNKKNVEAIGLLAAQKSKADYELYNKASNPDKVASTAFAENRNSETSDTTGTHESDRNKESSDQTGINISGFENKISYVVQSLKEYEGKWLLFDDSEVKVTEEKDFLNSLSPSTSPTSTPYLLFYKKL
Chain of USP1 (construct USP1 (I-785, GG670, 671AA)/UAF1 (I-677)-Flag) (Q8TAF3 whole entry partner): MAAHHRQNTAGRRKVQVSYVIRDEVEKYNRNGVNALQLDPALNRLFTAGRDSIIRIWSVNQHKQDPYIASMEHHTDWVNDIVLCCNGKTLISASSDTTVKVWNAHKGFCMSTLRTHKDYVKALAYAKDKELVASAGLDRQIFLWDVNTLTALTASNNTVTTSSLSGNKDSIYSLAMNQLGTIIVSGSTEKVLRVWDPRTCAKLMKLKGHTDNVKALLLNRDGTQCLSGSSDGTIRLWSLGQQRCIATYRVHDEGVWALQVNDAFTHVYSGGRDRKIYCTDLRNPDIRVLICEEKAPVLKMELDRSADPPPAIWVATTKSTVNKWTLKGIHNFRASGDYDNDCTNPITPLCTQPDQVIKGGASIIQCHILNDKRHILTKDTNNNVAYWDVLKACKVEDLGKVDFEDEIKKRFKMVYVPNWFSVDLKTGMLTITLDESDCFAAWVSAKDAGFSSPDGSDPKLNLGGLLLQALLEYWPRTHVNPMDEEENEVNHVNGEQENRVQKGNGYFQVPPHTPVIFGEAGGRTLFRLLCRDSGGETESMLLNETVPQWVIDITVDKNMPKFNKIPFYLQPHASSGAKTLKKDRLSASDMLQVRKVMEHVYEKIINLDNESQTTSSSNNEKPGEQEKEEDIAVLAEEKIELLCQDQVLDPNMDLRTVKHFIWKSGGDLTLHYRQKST
The term IC50 denotes the midpoint of a concentration-inhibition curve. Low readings indicate higher potency, high ones lower potency. For `CC(=O)N1CCC(c2ccn(-c3ccc(Cn4c(=O)[nH]c5cnc(-c6cccnc6C(C)C)nc54)cc3)n2)CC1` [Compound I-465, 9-(4-(3-(1-acetylpiperidin-4-yl)-1H-pyrazol-1-yl)benzyl)-2-(2-isopropylpyridin-3-yl)-7,9-dihydro-8H-purin-8-one], the concentration for half-maximal inhibition (IC50) lay in the range of 200 to 2000 nM. With `CC(C)NC(=O)N1CCC(F)(Cn2c(=O)[nH]c3cnc(-c4ccccc4C(C)C)nc32)CC1` [Compound I-487, 4-fluoro-N-isopropyl-4-((2-(2-isopropylphenyl)-8-oxo-7,8-dihydro-9H-purin-9-yl)methyl)piperidine-1-carboxamide], the IC50 is over 2000 nM. `Cn1cc(C(F)(F)F)nc1-c1ccc(Cn2c(=O)n(C)c3cnc(-c4cccnc4OC(F)F)nc32)cc1` [Compound I-48, 2-(2-(difluoromethoxy)pyridin-3-yl)-7-methyl-9-(4-(1-methyl-4-(trifluoromethyl)-1H-imidazol-2-yl)benzyl)-7,9-dihydro-8H-purin-8-one]: the IC50 is under 50 nM. For `CC(C)c1ccccc1-c1ncc2[nH]c(=O)n(Cc3ccc(CN4CCOCC4)cc3)c2n1` [Compound I-153, 2-(2-isopropylphenyl)-9-(4-(morpholinomethyl)benzyl)-7,9-dihydro-8H-purin-8-one] the value was over 2000 nM; for `O=c1[nH]c2cnc(-c3cccnc3OCC(F)(F)F)nc2n1Cc1ccc(-n2cccn2)cc1` [Compound I-18, 9-(4-(1H-pyrazol-1-yl)benzyl)-2-(2-(2,2,2-trifluoroethoxy)pyridin-3-yl)-7,9-dihydro-8H-purin-8-one], 200 to 2000 nM; for `CC(C)c1ccccc1-c1ncc2[nH]c(=O)n(Cc3ccc(-n4ccc(C(F)(F)F)n4)cc3)c2n1` [Compound I-149, 2-(2-isopropylphenyl)-9-(4-(3-(trifluoromethyl)-1H-pyrazol-1-yl)benzyl)-7,9-dihydro-8H-purin-8-one], 50 to 200 nM.

For the compound `CC(C)C(=O)N1CCC(Cn2c(=O)n(C)c3cnc(-c4ccccc4C(C)C)nc32)CC1` [Compound I-462, 9-((1-isobutyrylpiperidin-4-yl)methyl)-2-(2-isopropylphenyl)-7-methyl-7,9-dihydro-8H-purin-8-one], the 50% inhibitory concentration (IC50) is over 2000 nM. Consider `CC(C)c1ncccc1-c1ncc2[nH]c(=O)n(Cc3ccc(-n4ccc(C5CCNCC5)n4)cc3)c2n1` [Compound I-435, 2-(2-isopropylpyridin-3-yl)-9-(4-(3-(piperidin-4-yl)-1H-pyrazol-1-yl)benzyl)-7,9-dihydro-8H-purin-8-one], for which the IC50 was over 2000 nM. As to `COc1nc(-c2ccc(Cn3c(=O)n(C)c4cnc(-c5ccccc5C(C)C)nc43)cc2)nn1C` [Compound I-281, 2-(2-isopropylphenyl)-9-(4-(5-methoxy-1-methyl-1H-1,2,4-triazol-3-yl)benzyl)-7-methyl-7,9-dihydro-8H-purin-8-one], the concentration for half-maximal inhibition (IC50) was under 50 nM.

`COCCn1cc(-c2ccc(Cn3c(=O)[nH]c4cnc(-c5ccccc5C(C)C)nc43)cc2)cn1` [Compound I-518, 2-(2-Isopropylphenyl)-9-(4-(1-(2-methoxyethyl)-1H-pyrazol-4-yl)benzyl)-7,9-dihydro-8H-purin-8-one] displayed an IC50 of 50 to 200 nM. In the case of `CC(=O)N1CCC(c2ccn(-c3ccc(Cn4c(=O)[nH]c5cnc(-c6ccccc6C(C)C)nc54)cc3)n2)CC1` [Compound I-463, 9-(4-(3-(1-acetylpiperidin-4-yl)-1H-pyrazol-1-yl)benzyl)-2-(2-isopropylphenyl)-7,9-dihydro-8H-purin-8-one], the IC50 was under 50 nM. Next, `CC(=O)N1CCC(c2cnc(-c3ccc(Cn4c(=O)[nH]c5cnc(-c6ccccc6C(C)C)nc54)cc3)n2C)CC1` [Compound I-473, 9-(4-(5-(1-acetylpiperidin-4-yl)-1-methyl-lH-imidazol-2-yl)benzyl)-2-(2-isopropylphenyl)-7,9-dihydro-8H-purin-8-one]: under 50 nM.
